Measured values: patent publication US9475816B2, “Substituted-1,4-dihydropyrazolo[4,3-b]indoles” (TAKEDA PHARMACEUTICAL COMPANY LIMITED, priority 2012, dated 2016)

Key:
human MetAP2 enzyme [1] = target: T1, human MetAP2 enzyme (Homo sapiens, UniProt P50579); test: MetAP2 enzyme assay, MetAP2 enzyme complexed with cobalt ions; conditions: MetAP2 Co pIC50, 10 μM CoCl2; -log(IC50), IC50 molar
Protocol: DNA encoding the full-length sequence of human MetAP2 enzyme is amplified by PCR and cloned into a pFastBac expression vector (Invitrogen). Recombinant baculovirus incorporating the MetAP2 construct is generated by transposition using the Bac-to-Bac system (Invitrogen). The expression of recombinant protein is carried out by infection of Spodoptera frugiperda Sf9 cells (Invitrogen) in 5L Wave Bioreactors (Wave Biotech). Recombinant protein is isolated from cellular extracts by binding to an SP Hitrap Fast Flow or SP Sepharose (Sigma) column, and the protein is eluted using a NaCl gradient. Partially purified extracts of MetAP2 are further purified by an AKTA FPLC over a Superdex-200 column (GE). The purity of MetAP2 protein is determined on denaturing SDS-PAGE gel.
The results for each well are expressed as percent inhibition and calculated using the equation:

human MetAP2 enzyme [2] = target: T1, human MetAP2 enzyme; test: MetAP2 enzyme assay, MetAP2 enzyme complexed with manganese ions; conditions: MetAP2 Mn pIC50, 10 μM MnCl2; -log(IC50), IC50 molar

T1 sequence (P50579 whole entry): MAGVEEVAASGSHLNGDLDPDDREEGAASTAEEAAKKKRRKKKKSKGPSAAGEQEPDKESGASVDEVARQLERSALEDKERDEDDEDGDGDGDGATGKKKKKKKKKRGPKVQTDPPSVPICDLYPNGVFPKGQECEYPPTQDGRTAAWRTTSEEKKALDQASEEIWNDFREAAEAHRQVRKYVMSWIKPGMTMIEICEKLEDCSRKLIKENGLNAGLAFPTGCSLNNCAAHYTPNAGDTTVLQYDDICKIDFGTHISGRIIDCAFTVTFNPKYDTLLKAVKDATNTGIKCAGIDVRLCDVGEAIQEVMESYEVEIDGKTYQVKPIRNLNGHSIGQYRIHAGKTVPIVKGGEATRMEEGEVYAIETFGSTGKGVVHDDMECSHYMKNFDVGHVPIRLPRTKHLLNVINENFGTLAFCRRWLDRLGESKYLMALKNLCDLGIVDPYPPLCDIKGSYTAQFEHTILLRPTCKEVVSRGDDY

| Compound | IC50 (human MetAP2 enzyme [1]) [nM] | IC50 (human MetAP2 enzyme [2]) [nM] |
| --- | --- | --- |
| Cc1nc2c(cc1-n1c3ccc(F)cc3c3[nH]ncc31)ncn2CCO [Example 82, 2-(6-(7-Fluoropyrazolo[4,3-b]indol-4(1H)-yl)-5-methyl-3H-imidazo[4,5-b]pyridin-3-yl)ethanol] | 7.94 | 10 |
| Cc1nc(N2CCO[C@H](CO)C2)ncc1-n1c2ccc(F)cc2c2[nH]ncc21 [Example 83, ((2S)-4-(5-(7-Fluoropyrazolo[4,3-b]indol-4(1H)-yl)-4-methylpyrimidin-2-yl)morpholin-2-yl)methanol] | 6.31 | 7.94 |
| O=c1[nH]c(N2CC[C@@H](O)C2)ncc1-n1c2ccc(F)cc2c2[nH]ncc21 [Example 84, (R)-5-(7-Fluoropyrazolo[4,3-b]indol-4(1H)-yl)-2-(3-hydroxypyrrolidin-1-yl)pyrimidin-4(3H)-one] | 20 | 10 |
| Cc1nc(N)ncc1-n1c2ccc(F)cc2c2[nH]ncc21 [Example 85, 5-(7-Fluoropyrazolo[4,3-b]indol-4(1H)-yl)-4-methylpyrimidin-2-amine] | 15.8 | 12.6 |
| Cc1nc(NC[C@@H](O)CO)ncc1-n1c2ccc(F)cc2c2[nH]ncc21 [Example 86, (2R)-3-((5-(7-Fluoropyrazolo[4,3-b]indol-4(1H)-yl)-4-methylpyrimidin-2-yl)amino)propane-1,2-diol] | 7.94 | 12.6 |
| Cc1nc2[nH]c(=O)[nH]c2cc1-n1c2ccc(F)cc2c2[nH]ncc21 [Example 87, 6-(7-Fluoropyrazolo[4,3-b]indol-4(1H)-yl)-5-methyl-1H-imidazo[4,5-b]pyridin-2(3H)-one] | 7.94 | 10 |
| Cn1nc(C(=O)NCCO)cc1-n1c2ccc(F)cc2c2[nH]ncc21 [Example 88, 5-(7-Fluoropyrazolo[4,3-b]indol-4(1H)-yl)-N-(2-hydroxyethyl)-1-methyl-1H-pyrazole-3-carboxamide] | 25.1 | 10 |
| Cc1nc(N2CC(C(N)=O)C2)ncc1-n1c2ccc(F)cc2c2[nH]ncc21 [Example 89, 1-(5-(7-Fluoropyrazolo[4,3-b]indol-4(1H)-yl)-4-methylpyrimidin-2-yl)azetidine-3-carboxamide] | 20 | 10 |
| Cc1nc2c(cc1-n1c3ccc(F)cc3c3[nH]ncc31)ncn2C[C@@H](O)CO [Example 90, (2R)-3-(6-(7-Fluoropyrazolo[4,3-b]indol-4(1H)-yl)-5-methyl-3H-imidazo[4,5-b]pyridin-3-yl)propane-1,2-diol] | 15.8 | 5.01 |
| Cc1nc(N[C@@H](C)CO)ncc1-n1c2ccc(F)cc2c2[nH]ncc21 [Example 91, (2S)-2-((5-(7-Fluoropyrazolo[4,3-b]indol-4(1H)-yl)-4-methylpyrimidin-2-yl)amino)propan-1-ol] | 6.31 | 12.6 |
| Cc1nc(NC[C@H](C)O)ncc1-n1c2ccc(F)cc2c2[nH]ncc21 [Example 92, (2S)-1-((5-(7-Fluoropyrazolo[4,3-b]indol-4(1H)-yl)-4-methylpyrimidin-2-yl)amino)propan-2-ol] | 10 | 7.94 |
| Cc1nc(NC[C@@H](C)O)ncc1-n1c2ccc(F)cc2c2[nH]ncc21 [Example 93, (2R)-1-((5-(7-Fluoropyrazolo[4,3-b]indol-4(1H)-yl)-4-methylpyrimidin-2-yl)amino)propan-2-ol] | 7.94 | 6.31 |
| Cc1cc(C(=O)N2CC(O)C2)ncc1-n1c2ccc(F)cc2c2[nH]ncc21 [Example 94, (5-(7-Fluoropyrazolo[4,3-b]indol-4(1H)-yl)-4-methylpyridin-2-yl)(3-hydroxyazetidin-1-yl)methanone] | 10 | 7.94 |
| Cc1cc(C(=O)NCCO)ncc1-n1c2ccc(F)cc2c2[nH]ncc21 [Example 95, 5-(7-Fluoropyrazolo[4,3-b]indol-4(1H)-yl)-N-(2-hydroxyethyl)-4-methylpicolinamide] | 31.6 | 20 |
| Cc1nc(C(=O)NCCO)ccc1-n1c2ccc(F)cc2c2[nH]ncc21 [Example 96, 5-(7-Fluoropyrazolo[4,3-b]indol-4(1H)-yl)-N-(2-hydroxyethyl)-6-methylpicolinamide] | 20 | 12.6 |
| Cc1nc(C(=O)N2CC(O)C2)ccc1-n1c2ccc(F)cc2c2[nH]ncc21 [Example 97, (5-(7-Fluoropyrazolo[4,3-b]indol-4(1H)-yl)-6-methylpyridin-2-yl)(3-hydroxyazetidin-1-yl)methanone] | 10 | 6.31 |
| O=C(NCc1ccccc1)n1c2ccc(F)cc2c2[nH]ncc21 [Example 98, N-Benzyl-7-fluoropyrazolo[4,3-b]indole-4(1H)-carboxamide] | 501 | 158 |
| O=C(C1CC1)n1c2ccc(F)cc2c2[nH]ncc21 [Example 99, Cyclopropyl(7-fluoropyrazolo[4,3-b]indol-4(1H)-yl)methanone] | 794 | 316 |
| Cc1nc(C(=O)NC2(CO)CC2)ccc1-n1c2ccc(F)cc2c2[nH]ncc21 [Example 100, 5-(7-Fluoropyrazolo[4,3-b]indol-4(1H)-yl)-N-(1-(hydroxymethyl)cyclopropyl)-6-methylpicolinamide] | 12.6 | 12.6 |
| Cc1nc(C(=O)NC2CC2)ccc1-n1c2ccc(F)cc2c2[nH]ncc21 [Example 101, N-Cyclopropyl-5-(7-fluoropyrazolo[4,3-b]indol-4(1H)-yl)-6-methylpicolinamide] | 10 | 10 |
| COCCNC(=O)c1ccc(-n2c3ccc(F)cc3c3[nH]ncc32)c(C)n1 [Example 102, 5-(7-Fluoropyrazolo[4,3-b]indol-4(1H)-yl)-N-(2-methoxyethyl)-6-methylpicolinamide] | 31.6 | 39.8 |
| Cc1nc(N2CC[C@H](C(=O)NCCO)C2)ncc1-n1c2ccc(F)cc2c2[nH]ncc21 [Example 103, (3S)-1-(5-(7-Fluoropyrazolo[4,3-b]indol-4(1H)-yl)-4-methylpyrimidin-2-yl)-N-(2-hydroxyethyl)pyrrolidine-3-carboxamide] | 6.31 | 10 |

Now from value to compound:

| IC50 (human MetAP2 enzyme [1]) [nM] | IC50 (human MetAP2 enzyme [2]) [nM] | Compound |
| --- | --- | --- |
| 10 | 12.6 | Cc1cc(C(=O)NC2(CO)CC2)ncc1-n1c2ccc(F)cc2c2[nH]ncc21 [Example 104, 5-(7-Fluoropyrazolo[4,3-b]indol-4(1H)-yl)-N-(1-(hydroxymethyl)cyclopropyl)-4-methylpicolinamide] |
| 50.1 | 63.1 | COCCNC(=O)c1cc(C)c(-n2c3ccc(F)cc3c3[nH]ncc32)cn1 [Example 105, 5-(7-Fluoropyrazolo[4,3-b]indol-4(1H)-yl)-N-(2-methoxyethyl)-4-methylpicolinamide] |
| 100 | 100 | Cc1cc(C(=O)N2CCOCC2)ncc1-n1c2ccc(F)cc2c2[nH]ncc21 [Example 106, (5-(7-Fluoropyrazolo[4,3-b]indol-4(1H)-yl)-4-methylpyridin-2-yl)(morpholino)methanone] |
| 20 | 12.6 | Cc1cc(C(N)=O)ncc1-n1c2ccc(F)cc2c2[nH]ncc21 [Example 107, 5-(7-Fluoropyrazolo[4,3-b]indol-4(1H)-yl)-4-methylpicolinamide] |
| 20 | 25.1 | Cc1cc(C(=O)N(C)C)ncc1-n1c2ccc(F)cc2c2[nH]ncc21 [Example 108, 5-(7-Fluoropyrazolo[4,3-b]indol-4(1H)-yl)-N,N,4-trimethylpicolinamide] |
| 25.1 | 25.1 | Cc1cc(C(=O)N2CC[C@@H](O)C2)ncc1-n1c2ccc(F)cc2c2[nH]ncc21 [Example 109, (5-(7-Fluoropyrazolo[4,3-b]indol-4(1H)-yl)-4-methylpyridin-2-yl)((R)-3-hydroxypyrrolidin-1-yl)methanone] |
| 7.94 | 12.6 | Cc1nc(N2CC[C@H](C(=O)N3CC(O)C3)C2)ncc1-n1c2ccc(F)cc2c2[nH]ncc21 [Example 111, ((3S)-1-(5-(7-Fluoropyrazolo[4,3-b]indol-4(1H)-yl)-4-methylpyrimidin-2-yl)pyrrolidin-3-yl)(3-hydroxyazetidin-1-yl)methanone] |
| 12.6 | 20 | CCN1CCn2ncc(-n3c4ccc(F)cc4c4[nH]ncc43)c2C1 [Example 112, 4-(5-Ethyl-4,5,6,7-tetrahydropyrazolo[1,5-a]pyrazin-3-yl)-7-fluoro-1,4-dihydropyrazolo[4,3-b]indole] |
| 12.6 | 10 | CNC(=O)c1cc(C)c(-n2c3ccc(F)cc3c3[nH]ncc32)cn1 [Example 113, 5-(7-Fluoropyrazolo[4,3-b]indol-4(1H)-yl)-N,4-dimethylpicolinamide] |
| 25.1 | 12.6 | Cc1cc(C(=O)N2CC(N)C2)ncc1-n1c2ccc(F)cc2c2[nH]ncc21 [Example 114, (3-Aminoazetidin-1-yl)(5-(7-fluoropyrazolo[4,3-b]indol-4(1H)-yl)-4-methylpyridin-2-yl)methanone] |
| 12.6 | 10 | Cc1cc(C(=O)NCCCO)ncc1-n1c2ccc(F)cc2c2[nH]ncc21 [Example 115, 5-(7-Fluoropyrazolo[4,3-b]indol-4(1H)-yl)-N-(3-hydroxypropyl)-4-methylpicolinamide] |
| 12.6 | 3.98 | Cc1nc2c(cc1-n1c3ccc(F)cc3c3[nH]ncc31)ncn2CCS(C)(=O)=O [Example 116, 7-Fluoro-4-(5-methyl-3-(2-(methylsulfonyl)ethyl)-3H-imidazo[4,5-b]pyridin-6-yl)-1,4-dihydropyrazolo[4,3-b]indole] |
| 20 | 7.94 | Cc1nc(C(=O)N2CC(N)C2)ccc1-n1c2ccc(F)cc2c2[nH]ncc21 [Example 117, (3-Aminoazetidin-1-yl)(5-(7-fluoropyrazolo[4,3-b]indol-4(1H)-yl)-6-methylpyridin-2-yl)methanone] |
| 25.1 | 10 | Cc1nc(C(=O)NCCCO)ccc1-n1c2ccc(F)cc2c2[nH]ncc21 [Example 118, 5-(7-Fluoropyrazolo[4,3-b]indol-4(1H)-yl)-N-(3-hydroxypropyl)-6-methylpicolinamide] |
